Test results: patent US11613533B2, “Compounds useful for inhibiting RET kinase” (Eli Lilly and Company, priority 2020, dated 2023)
Residue numbers refer to the chain shown, from its start.

Assays:
[1] = molecular target: T1, KIF5B-RET WT in HEK293 cells (Homo sapiens, UniProt P07949); test: RET cell assay (In-Cell Western, phospho-RET Y1062), wildtype; assay type: cell-based; settings: HEK293, doxycycline-induced KIF5B-RET WT, 1 hr compound treatment; read-out: EC50, inhibition of intracellular autophosphorylation of RET at tyrosine 1062, wildtype cells
T1 construct: expressed in transfected cells; host or cells: HEK293; the other entry of the earlier key: KIF5B (P33176, Kinesin-1 heavy chain)
T1 sequence (P07949 713-1063 limits assumed): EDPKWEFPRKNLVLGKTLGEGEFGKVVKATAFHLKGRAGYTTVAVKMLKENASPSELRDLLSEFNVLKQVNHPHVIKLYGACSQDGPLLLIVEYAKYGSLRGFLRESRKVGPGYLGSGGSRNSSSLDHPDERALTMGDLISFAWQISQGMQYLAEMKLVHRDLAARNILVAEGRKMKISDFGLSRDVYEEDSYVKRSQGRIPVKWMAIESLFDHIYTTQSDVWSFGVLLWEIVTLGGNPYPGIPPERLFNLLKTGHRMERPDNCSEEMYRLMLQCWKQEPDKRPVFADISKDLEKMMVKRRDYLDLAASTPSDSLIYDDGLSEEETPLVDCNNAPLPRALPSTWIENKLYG
Procedure: (§1) Compounds of formulas (I), (II), and (III) are screened for their ability to inhibit the intracellular autophosphorylation of RET at tyrosine 1062 as detected by In-Cell Western. HEK293 cells containing a doxycycline-inducible plasmid for inducible expression of KIF5B-RET WT and RET mutant forms V804M and G810S are seeded at 25,000 cells/well into black poly-D-lysine pre-coated 384-well plates (Corning, Catalog No. 356697). Expression of KIF5B-RET is induced with doxycycline at 1 μg/mL and cells are incubated at 37° C. overnight. Compounds are prepared in a threefold serial dilution in DMSO before further diluting 1:100 in media prior to the addition to the cells (0.1% final DMSO concentration). Compound treatment is performed for 1 hr at 37° C. followed by fixation of cells with 4% formaldehyde for 20 min at RT and cell permeabilisation with ice-cold MeOH for 10 min at RT. Cells are incubated with Intercept® blocking buffer (Li—COR, Catalogue No. 927-70010) for 1 hr at RT. Incubation with primary antibodies against human phospho-RET (Y1062) (R&D, Catalogue No. AF5009, 1/250 dilution) and human glyceraldehyde-3-phosphate dehydrogenase (clone 6C5, Merck, Catalog No. MAB374, 1/1000 dilution) are performed overnight at 4° C. Incubation with secondary antibodies IRDye® 800CW goat anti-rabbit IgG (Li—COR, Catalogue No. 926-32211, 1/1000 dilution) and IRDye® 680CW goat anti-mouse IgG (Li—COR, Catalogue No. 926-68070, 1/1000 dilution) are performed for 1 hr at RT. All antibody dilutions are done in Intercept® blocking buffer containing 0.05% Tween20. After washing cells with PBS-T (Cell Signaling technology, Catalogue No. 9809), the images are acquired on a Li—COR Odyssey LCx at 700 and 800 nm. Percent of DMSO control is calculated with 100% signal referring to control conditions containing no compound (0.4% DMSO only) and 0% signal represented by conditions containing control compound. The % of DMSO control values are fit to a 4 parameter logistic curve, and the determined EC50 value is defined as the estimated concentration of inhibitor at the inflexion point of the fitted curve.

[2] = molecular target: T2, KIF5B-RET mutant form G810S in HEK293 cells (Homo sapiens, UniProt P07949, G810S); test: RET cell assay (In-Cell Western, phospho-RET Y1062), G810S; assay type: cell-based; settings: HEK293, doxycycline-induced KIF5B-RET G810S, 1 hr compound treatment; read-out: EC50, inhibition of intracellular autophosphorylation of RET at tyrosine 1062, G810S cells
T2 construct: expressed in transfected cells; host or cells: HEK293; the other entry of the earlier key: KIF5B (P33176, Kinesin-1 heavy chain)
T2 sequence (P07949 713-1063 G810S limits assumed): T1 sequence (P07949 713-1063 limits assumed) with G98S
Procedure: as §1

CC(C(=O)Nc1cc(-c2ccc(Cl)cc2Cl)no1)c1ccc(-c2nn(C(C)C)c(N)c2C(N)=O)cn1 (single isomer, unassigned; isomer 2) [Example 94, 5-Amino-1-isopropyl-3-[6-[2-[[3-(2,4-dichlorophenyl)isoxazol-5-yl]amino]-1-methyl-2-oxo-ethyl]-3-pyridyl]pyrazole-4-carboxamide, Isomer 2]
EC50 [1]: < 100 nM | EC50 [2]: < 100 nM
